Measurements from ChEMBL document CHEMBL4118125, “MK-8325: A silyl proline-containing NS5A inhibitor with pan-genotype activity for treatment of HCV” (Bioorg Med Chem Lett, 2018).
In brackets after ≈: the same amount, converted by molar mass.

How the values were obtained:
[1] = Solubility in pH 3.1 buffer; type: physicochemical
[2] = Stability in rat liver microsomes assessed as compound metabolism; type: ADME, microsome
[3] = target: T1, Nuclear receptor subfamily 1 group I member 2 (Homo sapiens, UniProt O75469); experiment: Activation of PXR in human hepatocytes assessed as induction of […] mRNA expression; type: ADME, cell-based
T1 sequence (O75469 whole entry): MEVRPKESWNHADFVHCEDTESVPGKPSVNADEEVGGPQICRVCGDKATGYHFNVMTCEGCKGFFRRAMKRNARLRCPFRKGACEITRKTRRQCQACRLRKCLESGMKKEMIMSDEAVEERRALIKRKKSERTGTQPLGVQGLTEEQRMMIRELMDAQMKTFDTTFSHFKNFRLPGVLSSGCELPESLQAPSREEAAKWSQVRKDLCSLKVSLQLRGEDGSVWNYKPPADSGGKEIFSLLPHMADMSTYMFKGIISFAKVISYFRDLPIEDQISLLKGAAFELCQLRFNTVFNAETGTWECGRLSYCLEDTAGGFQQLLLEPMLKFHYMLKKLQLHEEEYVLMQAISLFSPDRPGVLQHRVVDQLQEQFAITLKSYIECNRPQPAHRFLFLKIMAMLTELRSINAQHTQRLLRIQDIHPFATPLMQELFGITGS

[4] = Protein binding in cynomolgus monkey plasma; type: ADME, cell-free, Macaca fascicularis; conditions: read-out: PPB
Canis familiaris [5] = experiment: Clearance in beagle dog at 1 mg/kg, iv by LC-MS/MS method relative to liver blood flow; type: ADME, organism-based, Canis lupus familiaris; conditions: in vivo
[6] = Ratio of drug level in liver to plasma of rat; type: ADME, cell-free
[7] = Drug excretion in rat urine assessed as unchanged compound level at 2.5 mg/kg, iv; type: ADME, organism-based; conditions: read-out: Drug excretion
[8] = Drug excretion in dog assessed as unchanged compound level at 1 mg/kg, iv; type: ADME, organism-based, Canis lupus familiaris; conditions: in vivo
Salmonella typhimurium = experiment: Genotoxicity in Salmonella typhimurium by Ames test; type: toxicity, organism-based; conditions: salmonella enterica subsp. enterica serovar typhimurium
[9] = Drug excretion in rat bile assessed as unchanged compound level at 2.5 mg/kg, iv; type: ADME, organism-based; conditions: read-out: Drug excretion
[10] = Protein binding in dog plasma; type: ADME, cell-free, Canis lupus familiaris; conditions: read-out: PPB
[11] = Stability in human liver microsomes assessed as compound metabolism; type: ADME, microsome
Cytochrome P450 2C9 = Cytochrome P450 2C9 (Homo sapiens, UniProt P11712); experiment: Inhibition of CYP2C9 (unknown origin); type: ADME
Cytochrome P450 2C9, sequence (P11712 whole entry): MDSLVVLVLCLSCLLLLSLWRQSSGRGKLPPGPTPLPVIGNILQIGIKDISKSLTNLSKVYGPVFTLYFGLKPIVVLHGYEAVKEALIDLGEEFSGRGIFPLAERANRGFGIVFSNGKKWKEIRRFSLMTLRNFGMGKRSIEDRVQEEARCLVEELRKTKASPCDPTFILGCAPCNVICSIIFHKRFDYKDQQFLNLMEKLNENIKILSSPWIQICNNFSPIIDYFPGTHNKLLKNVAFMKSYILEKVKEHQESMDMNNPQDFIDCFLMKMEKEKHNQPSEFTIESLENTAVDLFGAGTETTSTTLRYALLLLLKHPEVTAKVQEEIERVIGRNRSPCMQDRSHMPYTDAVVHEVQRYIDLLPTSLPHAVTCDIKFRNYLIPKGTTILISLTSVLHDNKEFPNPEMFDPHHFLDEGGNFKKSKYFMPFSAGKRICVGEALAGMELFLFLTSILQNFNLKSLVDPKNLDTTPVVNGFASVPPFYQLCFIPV

[12] = Cytotoxicity in human HuH7 replicon cells by MTS assay; type: cell-based, Huh-7
Hepatocyte [13] = experiment: Stability in rat hepatocytes assessed as compound metabolism; type: ADME, cell-based
[14] = target: T1, Nuclear receptor subfamily 1 group I member 2; experiment: Activation of PXR (unknown origin); type: ADME
[15] = Therapeutic index, ratio of CC50 for human HuH7 replicon cells to EC50 for inhibition of HCV NS5A in HCV genotype 1b assessed as reduction in viral replication by cell based replicon assay; type: toxicity; conditions: read-out: Ratio CC50/EC50
Rattus norvegicus [16] = experiment: Clearance in Sprague-Dawley rat at 2.5 mg/kg, iv by LC-MS/MS method relative to liver blood flow; type: ADME, organism-based; conditions: in vivo
Hepatocyte [17] = experiment: Stability in human hepatocytes assessed as compound metabolism; type: ADME, cell-based
Hepatocyte [18] = experiment: Stability in dog hepatocytes assessed as compound metabolism; type: ADME, cell-based, Canis lupus familiaris
[19] = Ratio of drug level in liver to plasma of dog; type: ADME, cell-free, Canis lupus familiaris
[20] = Dissociation constant, pKa of the compound; type: physicochemical
[21] = Ratio of drug level in brain to plasma of dog; type: ADME, cell-free, Canis lupus familiaris; conditions: read-out: BPR
[22] = Ratio of drug level in liver to plasma of cynomolgus monkey; type: ADME, cell-free, Macaca fascicularis
Canis familiaris [23] = experiment: Toxicity in male dog up to 750 mg/kg/day, po for 7 days; type: organism-based, Canis lupus familiaris; conditions: in vivo, 168 h
Cynomolgus monkey [24] = experiment: Clearance in cynomolgus monkey at 1 mg/kg, iv by LC-MS/MS method relative to liver blood flow; type: ADME, organism-based, Macaca fascicularis; conditions: in vivo
[25] = target: T2, Solute carrier organic anion transporter family member 1B1 (Homo sapiens, UniProt Q9Y6L6); experiment: Inhibition of human OATP1B1; type: ADME
T2 sequence (Q9Y6L6 whole entry): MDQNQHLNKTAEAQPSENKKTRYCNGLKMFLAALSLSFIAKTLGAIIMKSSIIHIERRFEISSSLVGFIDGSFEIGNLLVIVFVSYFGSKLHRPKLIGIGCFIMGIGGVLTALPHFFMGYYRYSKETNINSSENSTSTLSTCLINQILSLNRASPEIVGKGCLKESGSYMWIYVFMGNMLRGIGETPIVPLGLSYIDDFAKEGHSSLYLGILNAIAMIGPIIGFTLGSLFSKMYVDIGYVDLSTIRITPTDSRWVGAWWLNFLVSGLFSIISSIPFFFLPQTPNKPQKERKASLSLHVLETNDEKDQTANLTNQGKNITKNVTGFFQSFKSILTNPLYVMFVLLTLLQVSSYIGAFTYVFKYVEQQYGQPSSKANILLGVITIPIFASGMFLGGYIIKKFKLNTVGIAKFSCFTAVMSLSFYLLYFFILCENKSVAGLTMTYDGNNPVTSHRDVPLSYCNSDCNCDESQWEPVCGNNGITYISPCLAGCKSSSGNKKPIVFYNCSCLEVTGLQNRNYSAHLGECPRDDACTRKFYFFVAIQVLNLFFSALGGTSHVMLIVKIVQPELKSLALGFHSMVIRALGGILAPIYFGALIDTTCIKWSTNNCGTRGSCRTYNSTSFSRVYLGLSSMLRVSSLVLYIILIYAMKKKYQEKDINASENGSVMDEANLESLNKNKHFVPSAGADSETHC

[26] = Stability in cynomolgus monkey liver microsomes assessed as compound metabolism; type: ADME, Macaca fascicularis, microsome
Cytochrome P450 2D6 = Cytochrome P450 2D6 (Homo sapiens, UniProt P10635); experiment: Inhibition of CYP2D6 (unknown origin); type: ADME
Cytochrome P450 2D6, sequence (P10635 whole entry): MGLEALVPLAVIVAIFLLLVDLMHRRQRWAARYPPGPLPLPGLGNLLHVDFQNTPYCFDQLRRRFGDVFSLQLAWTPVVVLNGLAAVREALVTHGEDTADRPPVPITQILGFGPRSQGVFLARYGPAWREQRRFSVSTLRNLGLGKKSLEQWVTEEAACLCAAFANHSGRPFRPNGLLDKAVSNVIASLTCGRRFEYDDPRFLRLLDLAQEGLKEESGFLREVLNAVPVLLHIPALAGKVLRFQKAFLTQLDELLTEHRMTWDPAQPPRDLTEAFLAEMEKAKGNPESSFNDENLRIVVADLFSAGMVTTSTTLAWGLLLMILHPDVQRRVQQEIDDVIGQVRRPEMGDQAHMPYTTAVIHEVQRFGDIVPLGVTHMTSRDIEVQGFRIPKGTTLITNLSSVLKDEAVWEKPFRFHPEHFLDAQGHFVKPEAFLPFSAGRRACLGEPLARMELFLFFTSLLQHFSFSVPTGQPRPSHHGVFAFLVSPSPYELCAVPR

[27] = Solubility in pH 7.3 buffer; type: physicochemical
[28] = Ratio of drug level in brain to plasma of rat; type: ADME, cell-free; conditions: read-out: BPR
[29] = Toxicity in female rat up to 30 mg/kg/day, po for 4 days; type: organism-based; conditions: in vivo
Rattus norvegicus [30] = experiment: Toxicity in male rat assessed as increase in monocyte level at 100 mg/kg/day, po for 7 days; type: organism-based; conditions: in vivo, 168 h
Hepatocyte [31] = experiment: Stability in cynomolgus monkey hepatocytes assessed as compound metabolism; type: ADME, cell-based, Macaca fascicularis
[32] = Ratio of drug level in brain to plasma of cynomolgus monkey; type: ADME, cell-free, Macaca fascicularis; conditions: read-out: BPR
[33] = target: T3, PXR (Nuclear receptor subfamily 1 group I member 2) (Homo sapiens, UniProt O75469); experiment: Activation of PXR (unknown origin) relative to rifampicin; type: ADME; conditions: read-out: FC
T3 sequence (O75469 whole entry): T1 sequence (O75469 whole entry)

[34] = Protein binding in rat plasma; type: ADME, cell-free; conditions: read-out: PPB
[35] = target: Voltage-gated inwardly rectifying potassium channel KCNH2 (Homo sapiens, UniProt Q12809); experiment: Inhibition of human ERG at 30 uM
Voltage-gated inwardly rectifying potassium channel KCNH2, sequence (Q12809 whole entry): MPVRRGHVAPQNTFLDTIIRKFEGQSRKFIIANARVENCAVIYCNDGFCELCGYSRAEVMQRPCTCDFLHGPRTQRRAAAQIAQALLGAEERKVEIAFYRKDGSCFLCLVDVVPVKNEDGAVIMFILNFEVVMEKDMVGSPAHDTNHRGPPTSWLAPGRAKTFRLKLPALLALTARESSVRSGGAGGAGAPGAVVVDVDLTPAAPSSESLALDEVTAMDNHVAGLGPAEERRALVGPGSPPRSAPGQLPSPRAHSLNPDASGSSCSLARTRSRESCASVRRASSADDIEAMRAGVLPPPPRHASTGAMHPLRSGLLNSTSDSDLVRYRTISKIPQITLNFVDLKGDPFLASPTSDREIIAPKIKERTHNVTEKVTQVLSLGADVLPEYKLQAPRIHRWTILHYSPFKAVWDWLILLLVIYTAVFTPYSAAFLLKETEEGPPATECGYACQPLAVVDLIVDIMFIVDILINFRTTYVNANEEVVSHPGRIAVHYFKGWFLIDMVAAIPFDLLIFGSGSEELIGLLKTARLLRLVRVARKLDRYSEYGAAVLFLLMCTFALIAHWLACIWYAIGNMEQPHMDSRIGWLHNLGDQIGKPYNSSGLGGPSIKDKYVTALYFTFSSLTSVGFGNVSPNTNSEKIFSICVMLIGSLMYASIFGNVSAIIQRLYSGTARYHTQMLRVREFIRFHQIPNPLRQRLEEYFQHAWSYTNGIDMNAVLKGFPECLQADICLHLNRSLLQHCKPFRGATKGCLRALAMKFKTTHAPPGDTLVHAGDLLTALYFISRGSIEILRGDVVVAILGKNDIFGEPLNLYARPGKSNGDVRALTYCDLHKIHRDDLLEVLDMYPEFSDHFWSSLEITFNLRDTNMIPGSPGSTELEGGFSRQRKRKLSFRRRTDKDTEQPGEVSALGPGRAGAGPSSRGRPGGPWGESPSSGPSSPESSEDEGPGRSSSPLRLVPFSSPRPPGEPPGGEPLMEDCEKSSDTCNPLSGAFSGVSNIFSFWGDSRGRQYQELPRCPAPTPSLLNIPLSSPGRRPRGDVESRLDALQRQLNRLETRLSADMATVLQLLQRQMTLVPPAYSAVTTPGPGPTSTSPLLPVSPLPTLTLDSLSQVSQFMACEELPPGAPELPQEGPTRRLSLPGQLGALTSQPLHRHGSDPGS

[36] = target: Voltage-gated L-type calcium channel (Homo sapiens, UniProt Q13936+Q13698+Q01668+O60840); experiment: Inhibition of L-type calcium channel (unknown origin) at 30 uM; type: protein assay
Cytochrome P450 3A4 = Cytochrome P450 3A4 (Homo sapiens, UniProt P08684); experiment: Inhibition of CYP3A4 (unknown origin); type: ADME
Cytochrome P450 3A4, sequence (P08684 whole entry): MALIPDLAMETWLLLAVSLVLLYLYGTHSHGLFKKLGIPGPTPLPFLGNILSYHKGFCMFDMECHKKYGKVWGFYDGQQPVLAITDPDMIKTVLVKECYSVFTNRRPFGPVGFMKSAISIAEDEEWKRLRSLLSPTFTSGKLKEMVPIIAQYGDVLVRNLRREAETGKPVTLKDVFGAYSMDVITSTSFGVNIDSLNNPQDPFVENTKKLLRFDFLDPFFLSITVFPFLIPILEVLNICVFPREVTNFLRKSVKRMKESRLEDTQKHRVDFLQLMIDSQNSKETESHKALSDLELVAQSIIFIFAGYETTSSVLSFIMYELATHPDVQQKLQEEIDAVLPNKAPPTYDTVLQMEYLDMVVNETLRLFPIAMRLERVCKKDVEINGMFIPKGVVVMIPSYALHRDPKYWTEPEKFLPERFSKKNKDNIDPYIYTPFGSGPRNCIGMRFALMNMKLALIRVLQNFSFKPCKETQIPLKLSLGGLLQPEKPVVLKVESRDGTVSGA

Rattus norvegicus [37] = experiment: Toxicity in male rat assessed as induction of mortality up to 750 mg/kg/day, po for 7 days; type: organism-based; conditions: in vivo, 168 h
[38] = Permeability in MDCK2 cells; type: ADME, cell-based, Canis lupus familiaris, MDCK-II; conditions: dog, MDCK; read-out: permeability
[39] = Drug excretion in rat feces assessed as unchanged compound level at 2.5 mg/kg, iv; type: ADME, organism-based; conditions: faeces, read-out: Drug excretion
[40] = Stability in dog liver microsomes assessed as compound metabolism; type: ADME, Canis lupus familiaris, microsome
Rattus norvegicus [41] = experiment: Toxicity in male rat assessed as increase in monocyte level at 750 mg/kg/day, po for 7 days; type: organism-based; conditions: in vivo, 168 h
[42] = Oral bioavailability in Sprague-Dawley rat at 5 mg/kg by LC-MS/MS method; type: ADME, organism-based; conditions: in vivo
[43] = Effective half life in beagle dog at 1 mg/kg, iv by LC-MS/MS method; type: ADME, organism-based, Canis lupus familiaris; conditions: in vivo, read-out: t1/2eff (converted)
[44] = Oral bioavailability in beagle dog at 2 mg/kg by LC-MS/MS method; type: ADME, organism-based, Canis lupus familiaris; conditions: in vivo
Canis familiaris [45] = experiment: AUC in beagle dog at 2 mg/kg, po by LC-MS/MS method; type: ADME, organism-based, Canis lupus familiaris; conditions: in vivo
Cynomolgus monkey [46] = experiment: AUC in cynomolgus monkey at 2 mg/kg, po by LC-MS/MS method; type: ADME, organism-based, Macaca fascicularis; conditions: in vivo
[47] = Clearance in beagle dog at 1 mg/kg, iv by LC-MS/MS method; type: ADME, organism-based, Canis lupus familiaris; conditions: in vivo
[48] = Drug level in beagle dog at 2 mg/kg, po after 24 hrs by LC-MS/MS method; type: ADME, organism-based, Canis lupus familiaris; conditions: in vivo, read-out: Drug uptake
[49] = Effective half life in cynomolgus monkey at 1 mg/kg, iv by LC-MS/MS method; type: ADME, organism-based, Macaca fascicularis; conditions: in vivo, read-out: t1/2eff (converted)
[50] = Drug level in Sprague-Dawley rat at 5 mg/kg, po after 24 hrs by LC-MS/MS method; type: ADME, organism-based; conditions: in vivo, read-out: Drug uptake
[51] = Effective half life in Sprague-Dawley rat at 2.5 mg/kg, iv by LC-MS/MS method; type: ADME, organism-based; conditions: in vivo, read-out: t1/2eff (converted)
[52] = Clearance in cynomolgus monkey at 1 mg/kg, iv by LC-MS/MS method; type: ADME, organism-based, Macaca fascicularis; conditions: in vivo
[53] = Oral bioavailability in cynomolgus monkey at 2 mg/kg by LC-MS/MS method; type: ADME, organism-based, Macaca fascicularis; conditions: in vivo
[54] = Clearance in Sprague-Dawley rat at 2.5 mg/kg, iv by LC-MS/MS method; type: ADME, organism-based; conditions: in vivo
[55] = Drug level in cynomolgus monkey at 2 mg/kg, po after 24 hrs by LC-MS/MS method; type: ADME, organism-based, Macaca fascicularis; conditions: in vivo, read-out: Drug uptake

COC(=O)N[C@H](C(=O)N1CC(F)(F)C[C@H]1c1ncc(-c2ccc(-c3ccc4c(ccc5nc([C@@H]6C[Si](C)(C)CN6C(=O)[C@@H](NC(=O)OC)C(C)C)[nH]c54)c3)cc2)[nH]1)C(C)C
solubility [1]: 65 µg/mL (≈ 77.1 µM) | Stability [2]: Stable | Activity [3]: > 3 µM | fraction unbound [4]: < 0.001 | clearance (Canis familiaris [5]): 3 to 7% | Kp [6]: 27 | dose excreted [7]: 27% | Drug excretion [8]: Active | Activity (Salmonella typhimurium): Non-Toxic | dose excreted [9]: 27% | fraction unbound [10]: < 0.001 | Stability [11]: Stable | INH (Cytochrome P450 2C9): > 20 µM | CC50 [12]: > 25 µM | Stability (Hepatocyte [13]): Stable | Activity [14]: > 10 µM | selectivity ratio [15]: > 8e+06 | clearance (Rattus norvegicus [16]): 3 to 7% | Stability (Hepatocyte [17]): Stable | Stability (Hepatocyte [18]): Stable | Kp [19]: 27 | pKa [20]: 3.57 to 5.69 | Kp [21]: 0.04 | Kp [22]: 27 | Activity (Canis familiaris [23]): Non-Toxic | clearance (Cynomolgus monkey [24]): 3 to 7% | inhibition (INH) [25]: Active | Stability [26]: Stable | INH (Cytochrome P450 2D6): > 20 µM | solubility [27]: 2.7 µg/mL (≈ 3.2 µM) | Kp [28]: 0.04 | NOAEL at 96 h [29]: > 30 mg/kg/day | Activity (Rattus norvegicus [30]): Toxic | Stability (Hepatocyte [31]): Stable | Kp [32]: 0.04 | fold induction [33]: 0.2 | fraction unbound [34]: < 0.001 | inhibition (INH) [35]: Not Active | inhibition (INH) [36]: Not Active | INH (Cytochrome P450 3A4): > 20 µM | Activity (Rattus norvegicus [37]): Non-Toxic | Papp [38]: 0.8 ×10⁻⁶ cm/s | dose excreted [39]: 27% | Stability [40]: Stable | Activity (Rattus norvegicus [41]): Toxic

COC(=O)N[C@H](C(=O)N1C[Si](C)(C)C[C@H]1c1ncc(-c2ccc(-c3ccc4c(ccc5nc([C@@H]6CC(F)(F)CN6C(=O)[C@@H](NC(=O)OC)C(C)C)[nH]c54)c3)cc2)[nH]1)C(C)C
Activity [3]: 0.3 µM | bioavailability [42]: 64% | half-life [43]: 30 h | bioavailability [44]: 47% | AUC (Canis familiaris [45]): 32 uM.hr/ml | AUC (Cynomolgus monkey [46]): 26 uM.hr/ml | INH (Cytochrome P450 2C9): > 20 µM | clearance [47]: 0.7 mL/min/kg | concentration at 24 h [48]: 0.4 nM | half-life [49]: 15 h | concentration at 24 h [50]: 94 nM | half-life [51]: 10 h | clearance [52]: 0.7 mL/min/kg | bioavailability [53]: 45% | INH (Cytochrome P450 2D6): > 20 µM | fold induction [33]: 0.31 | clearance [54]: 7 mL/min/kg | concentration at 24 h [55]: 273 nM | INH (Cytochrome P450 3A4): > 20 µM
